Measurements as given in ChEMBL document CHEMBL3885881, “DrugMatrix”.

Species: Rattus norvegicus
Test: DrugMatrix - Regimen: Daily Repeat
Assay type: toxicity, organism-based, Sprague-Dawley
Parameters: regimen Daily Repeat, gender Male, age 6-8 weeks
Details: in vivo, po, route oral GAVAGE, vehicle 100 % WATER; for ABSOLUTE BASOPHIL / ABSOLUTE EOSINOPHIL / ABSOLUTE LYMPHOCYTE / ABSOLUTE MONOCYTE / ABSOLUTE SEGMENTED NEUTROPHIL / BASOPHIL / EOSINOPHIL / ERYTHROCYTE COUNT / HEMATOCRIT / HEMOGLOBIN / LEUKOCYTE COUNT / LYMPHOCYTE / MEAN CORPUSCULAR HEMOGLOBIN / MEAN CORPUSCULAR HEMOGLOBIN CONCENTRATION / MEAN CORPUSCULAR VOLUME / MONOCYTE / NEUTROPHIL / NUCLEATED RED BLOOD CELLS / PLATELET COUNT: tissue Blood; for ALANINE AMINOTRANSFERASE / ALBUMIN / ALKALINE PHOSPHATASE / ASPARTATE AMINOTRANSFERASE / BLOOD UREA NITROGEN / CARBON DIOXIDE / CHLORIDE / CHOLESTEROL / CREATINE PHOSPHOKINASE / CREATININE / GLUCOSE / LACTATE DEHYDROGENASE / LIPASE / PHOSPHORUS / POTASSIUM / SODIUM / TOTAL BILIRUBIN / TOTAL PROTEIN / URIC ACID: tissue Plasma
[1] = 10 mg/kg, 120 h, dose level Low, time 5 day
[2] = 280 mg/kg, 72 h, dose level High, time 3 day
[3] = 280 mg/kg, 120 h, dose level High, time 5 day

NNc1nncc2ccccc12 [HYDRALAZINE]
ABSOLUTE BASOPHIL [1]: 0 CELLS/uL | ABSOLUTE EOSINOPHIL [1]: 0 CELLS/uL | ABSOLUTE LYMPHOCYTE [1]: 12743.33 CELLS/uL | ABSOLUTE MONOCYTE [1]: 327.33 CELLS/uL | ABSOLUTE SEGMENTED NEUTROPHIL [1]: 1062.67 CELLS/uL | BASOPHIL [1]: 0% | EOSINOPHIL [1]: 0% | ERYTHROCYTE COUNT [1]: 5.27 x10E6/uL | HEMATOCRIT [1]: 32.27% | HEMOGLOBIN [1]: 13.07 G/DL | LEUKOCYTE COUNT [1]: 14.13 x10E3/uL | LYMPHOCYTE [1]: 90% | MEAN CORPUSCULAR HEMOGLOBIN [1]: 24.8 pg | MEAN CORPUSCULAR HEMOGLOBIN CONCENTRATION [1]: 40.53 G/DL | MEAN CORPUSCULAR VOLUME [1]: 61.17 fL | MONOCYTE [1]: 2.33% | NEUTROPHIL [1]: 7.67% | NUCLEATED RED BLOOD CELLS [1]: 0 /100WBC | PLATELET COUNT [1]: 1239 x10E3/uL | ALANINE AMINOTRANSFERASE [1]: 50 u/L | ALBUMIN [1]: 4.2 G/DL | ALKALINE PHOSPHATASE [1]: 452.67 u/L | ASPARTATE AMINOTRANSFERASE [1]: 79.67 u/L | BLOOD UREA NITROGEN [1]: 16.33 mg/dL | CARBON DIOXIDE [1]: 29.67 mmol/L | CHLORIDE [1]: 100.33 MEQ/L | CHOLESTEROL [1]: 68 mg/dL | CREATINE PHOSPHOKINASE [1]: 219.67 u/L | CREATININE [1]: 0.15 mg/dL | GLUCOSE [1]: 131.33 mg/dL | LACTATE DEHYDROGENASE [1]: 184 u/L | LIPASE [1]: 11 u/L | PHOSPHORUS [1]: 10.8 mg/dL | POTASSIUM [1]: 5.91 MEQ/L | SODIUM [1]: 142.03 MEQ/L | TOTAL BILIRUBIN [1]: 0.13 mg/dL | TOTAL PROTEIN [1]: 5.73 G/DL | URIC ACID [1]: 1.13 mg/dL | ABSOLUTE BASOPHIL [2]: 0 CELLS/uL | ABSOLUTE EOSINOPHIL [2]: 0 CELLS/uL | ABSOLUTE LYMPHOCYTE [2]: 9108 CELLS/uL | ABSOLUTE MONOCYTE [2]: 0 CELLS/uL | ABSOLUTE SEGMENTED NEUTROPHIL [2]: 792 CELLS/uL | BASOPHIL [2]: 0% | EOSINOPHIL [2]: 0% | ERYTHROCYTE COUNT [2]: 5.62 x10E6/uL | HEMATOCRIT [2]: 33.4% | HEMOGLOBIN [2]: 13 G/DL | LEUKOCYTE COUNT [2]: 9.9 x10E3/uL | LYMPHOCYTE [2]: 92% | MEAN CORPUSCULAR HEMOGLOBIN [2]: 23.1 pg | MEAN CORPUSCULAR HEMOGLOBIN CONCENTRATION [2]: 38.9 G/DL | MEAN CORPUSCULAR VOLUME [2]: 59.4 fL | MONOCYTE [2]: 0% | NEUTROPHIL [2]: 8% | NUCLEATED RED BLOOD CELLS [2]: 0 /100WBC | PLATELET COUNT [2]: 1418 x10E3/uL | ALANINE AMINOTRANSFERASE [2]: 36 u/L | ALBUMIN [2]: 4.1 G/DL | ALKALINE PHOSPHATASE [2]: 257 u/L | ASPARTATE AMINOTRANSFERASE [2]: 59 u/L | BLOOD UREA NITROGEN [2]: 21 mg/dL | CARBON DIOXIDE [2]: 32 mmol/L | CHLORIDE [2]: 99 MEQ/L | CHOLESTEROL [2]: 74 mg/dL | CREATINE PHOSPHOKINASE [2]: 207 u/L | CREATININE [2]: 0.14 mg/dL | GLUCOSE [2]: 142 mg/dL | LACTATE DEHYDROGENASE [2]: 151 u/L | LIPASE [2]: 10 u/L | PHOSPHORUS [2]: 10.8 mg/dL | POTASSIUM [2]: 5.22 MEQ/L | SODIUM [2]: 139.9 MEQ/L | TOTAL BILIRUBIN [2]: 0.1 mg/dL | TOTAL PROTEIN [2]: 5.4 G/DL | URIC ACID [2]: 1.3 mg/dL | ABSOLUTE BASOPHIL [3]: 0 CELLS/uL | ABSOLUTE EOSINOPHIL [3]: 0 CELLS/uL | ABSOLUTE LYMPHOCYTE [3]: 8493.67 CELLS/uL | ABSOLUTE MONOCYTE [3]: 293 CELLS/uL | ABSOLUTE SEGMENTED NEUTROPHIL [3]: 980 CELLS/uL | BASOPHIL [3]: 0% | EOSINOPHIL [3]: 0% | ERYTHROCYTE COUNT [3]: 5.59 x10E6/uL | HEMATOCRIT [3]: 33.5% | HEMOGLOBIN [3]: 13.07 G/DL | LEUKOCYTE COUNT [3]: 9.77 x10E3/uL | LYMPHOCYTE [3]: 87.67% | MEAN CORPUSCULAR HEMOGLOBIN [3]: 23.37 pg | MEAN CORPUSCULAR HEMOGLOBIN CONCENTRATION [3]: 39 G/DL | MEAN CORPUSCULAR VOLUME [3]: 59.97 fL | MONOCYTE [3]: 3% | NEUTROPHIL [3]: 9.33% | NUCLEATED RED BLOOD CELLS [3]: 0 /100WBC | PLATELET COUNT [3]: 1213 x10E3/uL | ALANINE AMINOTRANSFERASE [3]: 40.33 u/L | ALBUMIN [3]: 4.2 G/DL | ALKALINE PHOSPHATASE [3]: 309.67 u/L | ASPARTATE AMINOTRANSFERASE [3]: 58.67 u/L | BLOOD UREA NITROGEN [3]: 18.33 mg/dL | CARBON DIOXIDE [3]: 25.67 mmol/L | CHLORIDE [3]: 101 MEQ/L | CHOLESTEROL [3]: 65.33 mg/dL | CREATINE PHOSPHOKINASE [3]: 302.33 u/L | CREATININE [3]: 0.16 mg/dL | GLUCOSE [3]: 143 mg/dL | LACTATE DEHYDROGENASE [3]: 125 u/L | LIPASE [3]: 11.33 u/L | PHOSPHORUS [3]: 10.47 mg/dL | POTASSIUM [3]: 5.72 MEQ/L | SODIUM [3]: 140.6 MEQ/L | TOTAL BILIRUBIN [3]: 0.17 mg/dL | TOTAL PROTEIN [3]: 5.47 G/DL | URIC ACID [3]: 1.43 mg/dL
